This test has as its system VHSV. Kind of test: Inhibition of in vitro VHSV infection of ZF4 cells. The test is classed as cell-based, viral haemorrhagic septicemia virus VHSV- 07.71. As to conditions: for VHSV-inhibiting concentrations lower than those of the SERPINe1-derived peptide: ZF4 cells, duplicates (Fig. 3).

The text below walks through data of paper PMC7185853 (Fish & Shellfish Immunology, 2015).

As for tannic acid, the “VHSV-inhibiting concentrations lower than those of the SERPINe1-derived peptide” value was about 50 fold. In addition, the “Inhibition of VHSV infectivity in vitro” value (68 μg per ml (∼40 μM), ZF4 cells (Fig. 3)) is about 95%.
For `O=C(O[C@@H]1Cc2c(O)cc(O)cc2O[C@@H]1c1cc(O)c(O)c(O)c1)c1cc(O)c(O)c(O)c1` [EGCG], the “VHSV-inhibiting concentrations lower than those of the SERPINe1-derived peptide” value is listed as about 50 fold.
As to `O=C(O)C(=O)c1cn(Cc2ccccc2)c2ccc(-c3ccc(OC(F)(F)F)cc3)cc12` [tiplaxtinin], the “VHSV-inhibiting concentrations lower than those of the SERPINe1-derived peptide” value was about 50 fold.
